According to patent US20260272906A1, “PERIPHERALLY RESTRICTED LPAR1 ANTAGONISTS AND USES THEREOF” (CONTINEUM THERAPEUTICS, INC., priority 2024, published 2026):

Legend:
[1] = Rat PK: brain penetration after PO dosing; type: in vivo; conditions: 10 mg/kg, Rat PK: Dosing PO @ 10 mpk; for Kp uu: read-out: Kp,uu (unbound brain-to-plasma partitioning)
human LPA1 = human LPA1 (Homo sapiens, UniProt Q92633); assay: In vitro functional assay of lysophosphatidic acid receptor 1 activity (calcium flux, Fluo-4 NW, LPA 18:1 at EC80); type: cell-based; conditions: B103 cells stably expressing human LPA1
Procedure: Primary compound plates were prepared in 100% DMSO (Sigma-Aldrich), secondary compound plates were prepared at 10× concentration in DMEM (Invitrogen), and tertiary compound plates were prepared at 3× concentration in assay buffer containing HBSS (no Ca^+2/Mg^+2, Invitrogen) and 0.1% BSA (Sigma-Aldrich). Fluo-4 NW calcium assay dye (Invitrogen) was prepared as per manufacturer's recommendations in assay buffer. B103 cells stably expressing human LPA1 (J. Chun lab, UCSD) were grown to confluency in DMEM media (Invitrogen) containing 10% FBS (ATCC), 10% Penicillin-Streptomycin (Sigma-Aldrich) and 50 μg Geneticin (Sigma-Aldrich), and detached with Accutase (Sigma-Aldrich) prior to assay. The freshly detached cells were resuspended in growth media and plated in black, clear-bottom 96-well plates (Costar) containing compound (i.e., secondary compound plate) at a density of 5×10^4 cells/well. Once plated, cells were left at room temperature for 30 minutes and then transferred to a 37° C., 5% CO2 incubator for 24 hours. […] Finally, lysophosphatidic acid (18:1) at the EC80 concentration was added and calcium flux measured using FlexStation 3 (Molecular Devices). Sigmoidal dose-response curves were generated by measuring […] over 45 sec and calculating the area under the curve. […]

human LPA1, sequence (Q92633 whole entry): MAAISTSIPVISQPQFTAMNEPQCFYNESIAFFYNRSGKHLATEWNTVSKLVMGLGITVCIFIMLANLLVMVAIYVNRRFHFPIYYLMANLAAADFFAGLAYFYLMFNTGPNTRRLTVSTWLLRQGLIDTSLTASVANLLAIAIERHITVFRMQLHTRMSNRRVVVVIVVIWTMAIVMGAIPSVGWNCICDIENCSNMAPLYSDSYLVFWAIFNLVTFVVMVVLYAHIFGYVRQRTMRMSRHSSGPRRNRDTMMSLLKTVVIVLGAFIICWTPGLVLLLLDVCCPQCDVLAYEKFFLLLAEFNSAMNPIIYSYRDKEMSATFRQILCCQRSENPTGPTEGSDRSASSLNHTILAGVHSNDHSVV

Row | concentration at 2 h [1] [nM] | Kp uu [1] | IC50 (human LPA1) [nM] | Structure (SMILES)
1 | 2100 | 0.15 | 10 to 100 | COc1ccc(NC(=O)N(c2ncccc2C(C)C)[C@H]2CC[C@H](C(=O)O)CC2)c(OC(F)F)n1 [Example 2, trans-4-(3-(2-(difluoromethoxy)-6-methoxypyridin-3-yl)-1-(3-isopropylpyridin-2-yl)ureido)cyclohexane-1-carboxylic acid]
2 | 290 | 0.05 | 10 to 100 | COc1ccc(NC(=O)N(c2cnccc2C(C)C)[C@H]2CC[C@H](C(=O)O)CC2)c(OC(F)F)n1 [Example 1, trans-4-(3-(2-(difluoromethoxy)-6-methoxypyridin-3-yl)-1-(4-isopropylpyridin-3-yl)ureido)cyclohexane-1-carboxylic acid]
